Experimental data reported in patent US20020111353A1, “Inhibitors of c-Jun N-terminal kinases (JNK) and other protein kinases” (priority 2000, published 2002).

What was measured:
Type in all cases: biochemical
JNK1 = JNK1 (Homo sapiens, UniProt P45983); experiment: JNK1 inhibition assay (spectrophotometric coupled-enzyme assay, analogous to JNK3); details: read-out: JNK1 (Ki rating)
Experimental: (§1) Compounds were assayed for the inhibition of JNK3 by a spectrophotometric coupled-enzyme assay. In this assay, a fixed concentration of activated JNK3 (10 nM) was incubated with various concentrations of a potential inhibitor dissolved in DMSO for 10 minutes at 30° C. in a buffer containing 0.1 M HEPES buffer, pH 7.5, containing 10 mM MgCl2, 2.5 mM phosphoenolpyruvate, 200 μM NADH, 30 μg/mL pyruvate kinase, 10 μg/mL lactate dehydrogenase, and 200 μM EGF receptor peptide. The EGF receptor peptide has the sequence […], and is a phosphoryl acceptor in the JNK3-catalyzed kinase reaction. The reaction was initiated by the addition of 10 μM ATP and the assay plate is inserted into the spectrophotometer's assay plate compartment that was maintained at 30° C. The decrease of absorbance at 340 nm was monitored as a function of time. The rate data as a function of inhibitor concentration was fitted to competitive inhibition kinetic model to determine the Ki.
(§2) The JNK1 and JNK2 assays were performed in an analogous manner.

activated JNK3 = target: T1, activated JNK3 (Homo sapiens, UniProt P53779); experiment: JNK3 inhibition, spectrophotometric coupled-enzyme assay; details: for Ki: activated JNK3 10 nM, 10 μM ATP, 30° C., read-out: JNK3 (Ki rating); for p38/JNK3: ratio of p38 to JNK3 activity as a measure of selectivity
T1 construct: One such construct encodes amino acid residues Ser40-Glu402 of JNK3α1 and is preceded by Met and Gly residues; Met-Gly (added initiation methionine and glycine, from the NcoI cloning site) (N); made in house; host or cells: E. coli BL21 (DE3)
T1 sequence (P53779 40-402): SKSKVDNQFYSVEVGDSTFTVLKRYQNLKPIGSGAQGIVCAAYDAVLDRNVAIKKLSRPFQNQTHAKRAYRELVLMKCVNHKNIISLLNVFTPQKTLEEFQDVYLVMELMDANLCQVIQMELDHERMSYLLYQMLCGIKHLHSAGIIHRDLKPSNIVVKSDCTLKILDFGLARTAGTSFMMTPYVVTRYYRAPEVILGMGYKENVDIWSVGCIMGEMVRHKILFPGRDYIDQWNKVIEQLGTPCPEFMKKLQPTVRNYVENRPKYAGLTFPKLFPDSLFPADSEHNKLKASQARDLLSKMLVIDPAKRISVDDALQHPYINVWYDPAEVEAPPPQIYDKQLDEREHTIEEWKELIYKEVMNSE
Description: A BLAST search of the EST database using the published JNK3α1 cDNA as a query identified an EST clone (#632588) that contained the entire coding sequence for human JNK3α1. Polymerase chain reactions (PCR) using pfu polymerase (Strategene) were used to introduce restriction sites into the CDNA for cloning into the pET-15B expression vector at the NcoI and BamHI sites. The protein was expressed in E. coli. Due to the poor solubility of the expressed full-length protein (Met 1-Gln 422), an N-terminally truncated protein starting at Ser residue at position 40 (Ser 40) was produced. This truncation corresponds to Ser 2 of JNK1 and JNK2 proteins, and is preceded by a methionine (initiation) and a glycine residue. The glycine residue was added in order to introduce an NcoI site for cloning into the expression vector. In addition, systematic C-terminal truncations were performed by PCR to identify a construct that give rise to diffraction-quality crystals. One such construct encodes amino acid residues Ser40-Glu402 of JNK3α1 and is preceded by Met and Gly residues.
Five mg of JNK3 was diluted to 0.5 mg/ml in 50 mM HEPES buffer, pH 7.5, containing 100 mM NaCl, 5 mM DTT, 20 mM MgCl2 and 1 mM ATP. GST-MKK7(DD) was added at a molar ratio of 1:2.5 GST-MKK7:JNK3. After incubation for 30 minutes at 25° C., the reaction mixture was concentrated 5-fold by ultrafiltration in a Centriprep-30 (Amicon, Beverly, Mass.), diluted to 10 ml and an additional 1 mM ATP added. This procedure was repeated three times to remove ADP and replenish ATP. The final addition of ATP was 5 mM and the mixture incubated overnight at 4° C.
The activated JNK3/GST-MKK7(DD) reaction mixture was exchanged into 50 mM HEPES buffer, pH 7.5, containing 5 mM DTT and 5% glycerol (w/v) by dialysis or ultrafiltration. The reaction mixture was adjusted to 1.1 M potassium phosphate, pH 7.5, and purified by hydrophobic interaction chromatography (at 25° C.) using a Rainin Hydropore column. […] Activated JNK3 (i.e. doubly phosphorylated JNK3) was stored at −70° C. at 0.25-1 mg/ml.
as §1

JNK2 = JNK2 (Homo sapiens, UniProt P45984); experiment: JNK2 inhibition assay (spectrophotometric coupled-enzyme assay, analogous to JNK3); details: read-out: JNK2 (Ki rating)
Sequence of JNK2 (P45984 whole entry, species assumed): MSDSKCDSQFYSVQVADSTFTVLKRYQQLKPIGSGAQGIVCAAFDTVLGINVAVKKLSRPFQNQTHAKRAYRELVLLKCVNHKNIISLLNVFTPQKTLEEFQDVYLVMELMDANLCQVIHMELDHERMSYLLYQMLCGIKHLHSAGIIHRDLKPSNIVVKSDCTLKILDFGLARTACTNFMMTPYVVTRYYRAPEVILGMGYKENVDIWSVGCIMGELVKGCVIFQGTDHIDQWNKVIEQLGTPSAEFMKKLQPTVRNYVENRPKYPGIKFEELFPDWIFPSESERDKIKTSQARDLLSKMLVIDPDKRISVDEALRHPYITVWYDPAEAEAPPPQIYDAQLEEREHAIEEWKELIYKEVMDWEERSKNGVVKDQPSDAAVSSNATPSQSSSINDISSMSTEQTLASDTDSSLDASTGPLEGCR
Experimental: as §1, §2

activated p38 = activated p38 (Homo sapiens, UniProt Q16539); experiment: p38 inhibition assay; details: read-out: p38 (Ki rating)
Sequence of activated p38 (Q16539 whole entry, the tested form may be a part, canonical isoform): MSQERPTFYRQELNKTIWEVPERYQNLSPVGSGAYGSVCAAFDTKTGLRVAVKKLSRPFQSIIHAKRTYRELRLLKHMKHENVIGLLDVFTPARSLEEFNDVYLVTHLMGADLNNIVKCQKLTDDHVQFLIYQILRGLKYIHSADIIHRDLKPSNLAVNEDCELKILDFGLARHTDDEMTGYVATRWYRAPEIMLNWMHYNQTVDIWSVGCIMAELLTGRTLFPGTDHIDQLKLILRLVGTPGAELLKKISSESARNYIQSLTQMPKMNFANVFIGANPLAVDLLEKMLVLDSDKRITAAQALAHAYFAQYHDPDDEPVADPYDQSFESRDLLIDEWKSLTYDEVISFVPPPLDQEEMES
Experimental: Two splice variants of human p38 kinase, CSBP1 and CSBP2, have been identified. […] The polymerase chain reaction product was cloned into the pET-15b vector (Novagen). The baculovirus transfer vector, pVL-(His)6-p38 was constructed by subcloning a XbaI-BamHI fragment of pET15b-(His)6-p38 into the complementary sites in plasmid pVL1392 (Pharmingen).
p38 was activated by combining 0.5 mg/ml p38 with 0.005 mg/ml DD-double mutant MKK6 in Buffer B+10 mM MgCl2, 2 mM ATP, 0.2 mM Na2VO4 for 30 minutes at 20° C. The activation mixture was then loaded onto a 1.0×10 cm MonoQ column (Pharmacia) and eluted with a linear 20 column volume gradient to 1.0 M NaCl in Buffer B. The activated p38 eluted after the ADP and ATP. The activated p38 peak was pooled and dialyzed against buffer B+0.2 mM Na2VO4 to remove the NaCl. The dialyzed protein was adjusted to 1.1M potassium phosphate by addition of a 4.0M stock solution and loaded onto a 1.0×10 cm HIC (Rainin Hydropore) column previously equilibrated in Buffer D (10% glycerol, 20 mM β-glycerophosphate, 2.0 mM DTT) +1.1MK2HPO4. The protein was eluted with a 20 column volume linear gradient to Buffer D+50 mM K2HPO4. The double phosphorylated p38 eluted as the main peak and was pooled for dialysis against Buffer B+0.2 mM Na2VO4 The activated p38 was stored at −70° C.
This assay is carried out in the presence of 10 mM MgCl2 and 100 mM HEPES buffer at pH 7.6. For a typical IC50 determination, a stock solution is prepared containing all of the above components and activated p38 (5 nM). The stock solution is aliquotted into vials. A fixed volume of DMSO or inhibitor in DMSO (final concentration of DMSO in reaction is 5%) is introduced to each vial, mixed and incubated for 15 minutes at room temperature. EGF receptor peptide, […], a phosphoryl acceptor in p38-catalyzed kinase reaction, is added to each vial to a final concentration of 200 μM. The kinase reaction is initiated with ATP (100 μM) and the vials are incubated at 30° C. After 30 minutes, the reactions are quenched with equal volume of 10% trifluoroacetic acid (TFA).
The phosphorylated peptide is quantified by HPLC analysis. Separation of phosphorylated peptide from the unphosphorylated peptide is achieved on a reverse phase column (Deltapak, 5 μm, C18 100D, part no. 011795) with a binary gradient of water and acteonitrile, each containing 0.1% TFA. IC50 (concentration of inhibitor yielding 50% inhibition) is determined by plotting the % activity remaining against inhibitor concentration.
This assay is carried out in the presence of 10 mM MgCl2, 25 mM β-glycerophosphate, 10% glycerol and 100 mM HEPES buffer at pH 7.6. For a typical Ki determination, the Km for ATP in the ATPase activity of activated p38 reaction is determined in the absence of inhibitor and in the presence of two concentrations of inhibitor. Ki is determined from the rate data as a function of inhibitor and ATP concentrations. A stock solution is prepared containing all of the above components and activated p38 (60 nM). The stock solution is aliquotted into vials. A fixed volume of DMSO or inhibitor in DMSO (final concentration of DMSO in reaction is 2.5%) is introduced to each vial, mixed and incubated for 15 minutes at room temperature. The reaction is initiated by adding various concentrations of ATP and then incubated at 30° C. After 30 minutes, the reactions are quenched with 50 μl of EDTA (0.1 M, final concentration), pH 8.0. The product of p38 ATPase activity, ADP, is quantified by HPLC analysis.
Separation of ADP from ATP is achieved on a reversed phase column (Supelcosil, LC-18, 3 μm, part no. 5-8985) using a binary solvent gradient of following composition: Solvent A—0.1 M phosphate buffer containing 8 mM tetrabutylammonium hydrogen sulfate (Sigma Chemical Co., catalogue no. T-7158), Solvent B—Solvent A with 30% methanol.

Sequence of JNK1 (P45983 whole entry, species assumed): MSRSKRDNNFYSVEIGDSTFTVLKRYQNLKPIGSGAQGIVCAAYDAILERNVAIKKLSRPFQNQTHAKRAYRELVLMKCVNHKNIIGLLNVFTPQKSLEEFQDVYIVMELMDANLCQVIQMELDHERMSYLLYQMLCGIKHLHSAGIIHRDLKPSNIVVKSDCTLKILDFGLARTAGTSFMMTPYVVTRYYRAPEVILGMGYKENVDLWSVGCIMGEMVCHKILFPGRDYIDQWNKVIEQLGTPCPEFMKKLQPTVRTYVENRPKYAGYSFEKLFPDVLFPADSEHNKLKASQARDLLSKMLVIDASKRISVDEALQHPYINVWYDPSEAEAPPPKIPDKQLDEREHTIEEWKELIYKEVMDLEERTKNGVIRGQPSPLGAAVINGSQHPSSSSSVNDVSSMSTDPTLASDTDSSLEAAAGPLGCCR

Ki (JNK1) [µM]	Ki (activated JNK3) [µM]	p38/JNK3 (activated JNK3)	Ki (JNK2) [µM]	Ki (activated p38) [µM]	SMILES
< 2	< 2	>10	< 2	> 10	c1ccc(Cn2cc(-c3ccnc(NC4CCCCC4)n3)cn2)cc1 [II-65]
< 2	< 2	>10	< 2	> 10	c1ccc(-n2cc(-c3ccnc(NC4CCCCC4)n3)cn2)cc1 [II-67]
2 to 10	< 2	≧10	2 to 10	> 10	COc1ccc(-n2cc(-c3ccnc(NC4CCCCC4)n3)cn2)cc1 [II-70]
< 2	< 2	>10	< 2	> 10	Clc1ccc(Cl)c(-n2cc(-c3ccnc(NC4CCCCC4)n3)cn2)c1 [II-71]
< 2	< 2	>10	< 2	> 10	Fc1ccc(-n2cc(-c3ccnc(NC4CCCCC4)n3)cn2)c(F)c1 [II-72, Cyclohexyl-{4-[l-(2,4-difluoro-phenyl)-1H-pyrazol-4-yl]-pyrimidin-2-yl}-amine]
< 2	< 2	>10	< 2	> 10	Cc1c(-c2ccnc(Nc3ccc(F)cc3)n2)cnn1-c1ccccc1 [II-100]
< 2	< 2	>10	< 2	> 10	Cc1c(-c2ccnc(Nc3ccc(Cl)cc3)n2)cnn1-c1ccccc1 [II-101]
< 2	< 2	>10	< 2	> 10	Cc1c(-c2ccnc(Nc3ccc([N+](=O)[O-])cc3)n2)cnn1-c1ccccc1 [II-102]
